Test results published in patent publication US12551463B2, “Dosing of a Bruton's tyrosine kinase inhibitor” (Loxo Oncology, Inc., priority 2019, dated 2026).
Entries after “also recorded” stand apart in the source; their conditions may differ. Read-outs that look alike come from different tables or passages of the source. Marks after values point to notes of the source that are not given here.

Assay: Phase 1/2 clinical study: pharmacokinetics in cancer patients
Type: in vivo, human
Conditions: for AUC(0-t) / half-life / Cmax / Tmax / concentration at 0 h / concentration at 1 h / concentration at 2 h / concentration at 4 h / concentration at 8 h / concentration at 24 h: human, plasma, oral; for half-life: read-out: T1/2 Geo mean (% CV) (converted); for Cmax: read-out: Cmax Geo mean (% CV); for Tmax: read-out: Tmax Median (min, max); for concentration at 0 h / concentration at 1 h / concentration at 2 h / concentration at 4 h / concentration at 8 h / concentration at 24 h: read-out: Mean patient plasma CONC (SD); for concentration at 24 h: 24 hr (not measured, inferred based on predose)
Source text: The study is an open-label, multi-center study of oral BTK-I to evaluate safety and efficacy as monotherapy and as part of combination therapy in patients with CLL/SLL and NHL who have failed or are intolerant to standard of care. This study includes monotherapy as well as combination treatment parts. The monotherapy part includes Phase 1 dose escalation and dose expansion as well as Phase 2. The combination therapy part is a Phase 1b (safety assessment and expansion) of BTK-I in combination with venetoclax, with or without anti-CD20 therapy. Phase 1 dose escalation will proceed prior to start of Phase 1b or Phase 2. Once a recommended Phase 2 dose (RP2D) is identified in Phase 1, enrollment can commence to the Phase 1b combination therapies and Phase 2 monotherapy cohorts.
BTK-I is administered in oral tablet form. Dose escalation will follow a 3+3 design starting with a 25 mg QD dose (followed by 50 mg QD (dose level cohort 2), 100 mg QD (dose level cohort 3), 150 mg QD (dose level cohort 4), 200 mg QD (dose level cohort 5), 250 mg QD (dose level cohort 6), and 300 mg QD (dose level cohort 7)). Cycle length will be 28 days. The drug limiting toxicity (DLT) period will be 28 days, commencing with the first dose of BTK-I.
The pharmacokinetic profiles and adverse events for BTK-I doses are summarized in the below tables.
Pharmacokinetic Parameters of BTK-I—in Cancer Patients at Steady State (Cycle 1 Day 8)

[1] = 25 mg QD, steady state (Cycle 1 Day 8), N=5
[2] = 50 mg QD, steady state (Cycle 1 Day 8), N=6

COc1ccc(F)cc1C(=O)NCc1ccc(-c2nn([C@@H](C)C(F)(F)F)c(N)c2C(N)=O)cc1 [BTK-I, (S)-5-amino-3-(4-((5-fluoro-2-methoxybenzamido)methyl)phenyl)-1-(1,1,1-trifluoropropane-2-yl)-1H-pyrazole-4-carboxamide]
Ratio AUC0-8 Day 8/Day 1 Geo mean (% CV) (25 mg QD (N = 5)): 1.44 (23.0%)
CL/F Geo mean (% CV) (25 mg QD, steady state (Cycle 1 Day 8), N = 4, % CV 69.6%): 1.55^a (69.6%) L/h
dose dependence of exposure (Cmax and AUC) (25 mg to 300 mg daily): dose-5 dependent and linear increases in BTK-I exposure; also recorded: linear dose-proportional exposures
interpatient variability of exposure (25 mg to 300 mg daily): low interpatient variability
Ratio AUC0-8 Day 8/Day 1 Geo mean (% CV) (50 mg QD (N = 6)): 1.51 (25.9%)
CL/F Geo mean (% CV) (50 mg QD, steady state (Cycle 1 Day 8), N = 5, % CV 36.7%): 2.62^b (36.7%) L/h
Ratio AUC0-8 Day 8/Day 1 Geo mean (% CV) (100 mg QD (N = 9)): 1.88 (42.8%)
CL/F Geo mean (% CV) (100 mg QD, steady state (Cycle 1 Day 8), N = 8, % CV 63.0%): 0.968^c (63.0%) L/h
Ratio AUC0-8 Day 8/Day 1 Geo mean (% CV) (150 mg QD (N = 20)): 1.74 (24.9%)
T1/2 Geo mean (% CV) (150 mg QD, steady state (Cycle 1 Day 8), N = 18, % CV 51.8%): 18.l^d (51.8%)
CL/F Geo mean (% CV) (150 mg QD, steady state (Cycle 1 Day 8), N = 18, % CV 66.7%): 1.36^d (66.7%) L/h
trough steady-state exposure relative to BTK IC96 (200 mg QD): BTK IC96 target coverage
Ratio AUC0-8 Day 8/Day 1 Geo mean (% CV) (200 mg QD, N = 73, % CV 29.6%): 1.69^h (29.6%)^
CL/F Geo mean (% CV) (200 mg QD, steady state (Cycle 1 Day 8), N = 64, % CV 61.8%): 1.14^e (61.8%) L/h
Ratio AUC0-8 Day 8/Day 1 Geo mean (% CV) (250 mg QD (N = 25)): 1.68 (24.5%)
CL/F Geo mean (% CV) (250 mg QD, steady state (Cycle 1 Day 8), N = 21, % CV 1.08%): 1.26^f (1.08%) L/h
Cmax Geo mean (% CV) (250 mg QD, steady state (Cycle 1 Day 8), N=25): 8100 (28.1%) ng/mL
Ratio AUC0-8 Day 8/Day 1 Geo mean (% CV) (300 mg QD, N=17): 2.15 (31.2%)
CL/F Geo mean (% CV) (300 mg QD, steady state (Cycle 1 Day 8), N = 16, % CV 42.5%): 1.63^g (42.5%) L/h
AUC(0-t) (25 mg, 25 mg QD, steady state (Cycle 1 Day 8), N=5, read-out: AUC0-8 Geo mean (% CV)): 4240 ng·h/mL
AUC(0-t) (25 mg, 25 mg QD, steady state (Cycle 1 Day 8), N=5, read-out: AUC0-24 Geo mean (% CV)): 9800 ng·h/mL
AUC(0-t) (50 mg, 50 mg QD, steady state (Cycle 1 Day 8), N=6, read-out: AUC0-8 Geo mean (% CV)): 8660 ng·h/mL
AUC(0-t) (50 mg, 50 mg QD, steady state (Cycle 1 Day 8), N=6, read-out: AUC0-24 Geo mean (% CV)): 20100 ng·h/mL
AUC(0-t) (100 mg, 100 mg QD, steady state (Cycle 1 Day 8), N=9, read-out: AUC0-8 Geo mean (% CV)): 22000 ng·h/mL
AUC(0-t) (100 mg, 100 mg QD, steady state (Cycle 1 Day 8), N=9, read-out: AUC0-24 Geo mean (% CV)): 52400 ng·h/mL
AUC(0-t) (150 mg, 150 mg QD, steady state (Cycle 1 Day 8), N=20, read-out: AUC0-8 Geo mean (% CV)): 28000 ng·h/mL
AUC(0-t) (150 mg, 150 mg QD, steady state (Cycle 1 Day 8), N=20, read-out: AUC0-24 Geo mean (% CV)): 64400 ng·h/mL
AUC(0-t) (200 mg, 200 mg QD, steady state (Cycle 1 Day 8), N=99, read-out: AUC0-8 Geo mean (% CV)): 36900 ng·h/mL
AUC(0-t) (200 mg, 200 mg QD, steady state (Cycle 1 Day 8), N=99, read-out: AUC0-24 Geo mean (% CV)): 91000 ng·h/mL
AUC(0-t) (250 mg, 250 mg QD, steady state (Cycle 1 Day 8), N=25, read-out: AUC0-8 Geo mean (% CV)): 49700 ng·h/mL
AUC(0-t) (250 mg, 250 mg QD, steady state (Cycle 1 Day 8), N=25, read-out: AUC0-24 Geo mean (% CV)): 111000 ng·h/mL
AUC(0-t) (300 mg, 300 mg QD, steady state (Cycle 1 Day 8), N=17, read-out: AUC0-8 Geo mean (% CV)): 65800 ng·h/mL
AUC(0-t) (300 mg, 300 mg QD, steady state (Cycle 1 Day 8), N=17, read-out: AUC0-24 Geo mean (% CV)): 158000 ng·h/mL
half-life (25 mg QD, steady state (Cycle 1 Day 8), N = 4, % CV 60.1%): 18.2 h
Cmax [1]: 734 ng/mL
Tmax [1]: 2 h
concentration at 0 h (25 mg): 263 ng/mL
concentration at 1 h (25 mg): 572 ng/mL
concentration at 2 h (25 mg): 650 ng/mL
concentration at 4 h (25 mg): 538 ng/mL
concentration at 8 h (25 mg): 495 ng/mL
concentration at 24 h (25 mg): 263 ng/mL
half-life (50 mg QD, steady state (Cycle 1 Day 8), N = 5, % CV 39.6%): 17.6 h
Cmax [2]: 1420 ng/mL
Tmax [2]: 1.5 h
concentration at 0 h (50 mg): 571 ng/mL
concentration at 1 h (50 mg): 1150 ng/mL
concentration at 2 h (50 mg): 1300 ng/mL
concentration at 4 h (50 mg): 1170 ng/mL
concentration at 8 h (50 mg): 1020 ng/mL
concentration at 24 h (50 mg): 571 ng/mL
half-life (100 mg QD, steady state (Cycle 1 Day 8), N = 8, % CV 33.9%): 22.2 h
Cmax (100 mg QD, steady state (Cycle 1 Day 8), N=9): 3910 ng/mL
